ChEMBL document CHEMBL5634092, “Design, synthesis, and biological evaluation of novel HDAC/CD13 dual inhibitors for the treatment of cancer” (Eur J Med Chem, 2023)

Columns and labels:
[1] = biological target: T1, Polyamine deacetylase HDAC10 (Homo sapiens, UniProt Q969S8); experiment: Inhibition of human HDAC10 using Boc-Lys (tri-fluoroacetyl)-AMC as substrate incubated for 1 hr followed by substrate addition and further incubated for 2 hrs by fluorescence assay
T1 sequence (Q969S8 whole entry): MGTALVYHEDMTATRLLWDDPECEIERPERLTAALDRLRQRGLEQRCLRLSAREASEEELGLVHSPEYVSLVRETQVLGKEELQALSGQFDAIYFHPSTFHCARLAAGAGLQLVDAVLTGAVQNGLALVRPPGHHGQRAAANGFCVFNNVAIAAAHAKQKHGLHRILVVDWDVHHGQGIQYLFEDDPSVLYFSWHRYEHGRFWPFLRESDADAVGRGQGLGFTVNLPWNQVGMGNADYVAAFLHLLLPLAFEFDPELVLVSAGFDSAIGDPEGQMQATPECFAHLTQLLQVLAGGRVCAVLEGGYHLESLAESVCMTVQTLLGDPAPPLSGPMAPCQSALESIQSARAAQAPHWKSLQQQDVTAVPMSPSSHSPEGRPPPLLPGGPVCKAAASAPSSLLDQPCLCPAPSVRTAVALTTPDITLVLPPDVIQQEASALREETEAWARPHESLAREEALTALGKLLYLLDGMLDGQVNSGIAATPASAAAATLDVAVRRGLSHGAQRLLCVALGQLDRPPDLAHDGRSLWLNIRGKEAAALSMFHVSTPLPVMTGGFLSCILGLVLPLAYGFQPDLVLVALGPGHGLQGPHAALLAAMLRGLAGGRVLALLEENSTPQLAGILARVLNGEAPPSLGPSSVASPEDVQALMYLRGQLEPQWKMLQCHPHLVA

Histone deacetylase 8 = biological target: T2, Histone deacetylase 8 (Homo sapiens, UniProt Q9BY41); experiment: Inhibition of human HDAC8 using Boc-Lys (tri-fluoroacetyl)-AMC as substrate incubated for 1 hr followed by substrate addition and further incubated for 2 hrs by fluorescence assay
T2 sequence (Q9BY41 whole entry): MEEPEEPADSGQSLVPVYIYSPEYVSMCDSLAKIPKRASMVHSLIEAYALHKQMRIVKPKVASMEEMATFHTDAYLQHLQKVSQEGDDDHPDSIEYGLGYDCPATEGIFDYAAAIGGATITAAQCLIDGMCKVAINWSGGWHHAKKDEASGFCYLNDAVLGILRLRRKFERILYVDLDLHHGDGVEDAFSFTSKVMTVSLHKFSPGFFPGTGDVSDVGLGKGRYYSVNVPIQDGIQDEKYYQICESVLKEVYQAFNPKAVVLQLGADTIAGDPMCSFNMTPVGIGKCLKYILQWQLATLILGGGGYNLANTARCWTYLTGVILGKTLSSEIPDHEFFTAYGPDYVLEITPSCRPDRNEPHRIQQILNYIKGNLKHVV

[2] = Stability of compound in artificial gastric juice at 0.4 mg/mL measured after 24 hrs by HPLC analysis; type: ADME; settings: simulated gi fluid
[3] = Stability of compound in rat liver homogenate at 0.4 mg/mL measured after 24 hrs by HPLC analysis; type: ADME, tissue-based; settings: tissue homogenate
[4] = Stability of compound in human plasma at […] measured after 24 hrs by HPLC analysis; type: ADME, cell-free
[5] = Stability of compound in artificial intestinal juice at 0.4 mg/mL measured after 24 hrs by HPLC analysis; type: ADME; settings: simulated gi fluid
Aminopeptidase N = Aminopeptidase N (Homo sapiens, UniProt P15144); experiment: Inhibition of human CD13 using L-leucine-p-nitroanilide as substrate incubated for 30 mins by microplate reader analysis
Aminopeptidase N, sequence (P15144 whole entry): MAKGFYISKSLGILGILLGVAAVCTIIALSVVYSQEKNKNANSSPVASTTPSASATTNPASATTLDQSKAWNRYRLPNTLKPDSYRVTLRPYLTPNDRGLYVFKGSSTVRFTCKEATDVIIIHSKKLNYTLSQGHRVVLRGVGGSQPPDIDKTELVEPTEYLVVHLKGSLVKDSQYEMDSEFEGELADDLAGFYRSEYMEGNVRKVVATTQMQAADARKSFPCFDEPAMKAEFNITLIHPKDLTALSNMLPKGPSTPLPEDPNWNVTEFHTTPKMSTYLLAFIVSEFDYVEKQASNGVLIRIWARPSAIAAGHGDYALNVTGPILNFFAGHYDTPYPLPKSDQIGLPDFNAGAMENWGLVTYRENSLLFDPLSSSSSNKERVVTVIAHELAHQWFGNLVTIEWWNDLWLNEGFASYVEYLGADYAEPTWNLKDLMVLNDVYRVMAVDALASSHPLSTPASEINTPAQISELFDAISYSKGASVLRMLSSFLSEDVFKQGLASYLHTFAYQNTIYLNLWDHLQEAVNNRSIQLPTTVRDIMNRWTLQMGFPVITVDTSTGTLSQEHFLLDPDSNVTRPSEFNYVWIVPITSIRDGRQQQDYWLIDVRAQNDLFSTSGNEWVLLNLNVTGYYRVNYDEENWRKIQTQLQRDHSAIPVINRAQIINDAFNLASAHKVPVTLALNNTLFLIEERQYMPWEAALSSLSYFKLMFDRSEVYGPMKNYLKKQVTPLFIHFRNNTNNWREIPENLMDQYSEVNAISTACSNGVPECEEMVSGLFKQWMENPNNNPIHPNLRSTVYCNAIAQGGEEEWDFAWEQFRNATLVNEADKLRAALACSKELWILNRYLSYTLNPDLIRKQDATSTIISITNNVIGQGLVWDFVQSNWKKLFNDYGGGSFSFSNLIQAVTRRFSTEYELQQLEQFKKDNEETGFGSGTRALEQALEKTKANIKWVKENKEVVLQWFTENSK

[6] = biological target: T3, Protein deacetylase HDAC6 (Homo sapiens, UniProt Q9UBN7); experiment: Inhibition of human HDAC6 using Boc-Lys (acetyl)-AMC as substrate incubated for 1 hr followed by substrate addition and further incubated for 2 hrs by fluorescence assay
T3 sequence (Q9UBN7 whole entry): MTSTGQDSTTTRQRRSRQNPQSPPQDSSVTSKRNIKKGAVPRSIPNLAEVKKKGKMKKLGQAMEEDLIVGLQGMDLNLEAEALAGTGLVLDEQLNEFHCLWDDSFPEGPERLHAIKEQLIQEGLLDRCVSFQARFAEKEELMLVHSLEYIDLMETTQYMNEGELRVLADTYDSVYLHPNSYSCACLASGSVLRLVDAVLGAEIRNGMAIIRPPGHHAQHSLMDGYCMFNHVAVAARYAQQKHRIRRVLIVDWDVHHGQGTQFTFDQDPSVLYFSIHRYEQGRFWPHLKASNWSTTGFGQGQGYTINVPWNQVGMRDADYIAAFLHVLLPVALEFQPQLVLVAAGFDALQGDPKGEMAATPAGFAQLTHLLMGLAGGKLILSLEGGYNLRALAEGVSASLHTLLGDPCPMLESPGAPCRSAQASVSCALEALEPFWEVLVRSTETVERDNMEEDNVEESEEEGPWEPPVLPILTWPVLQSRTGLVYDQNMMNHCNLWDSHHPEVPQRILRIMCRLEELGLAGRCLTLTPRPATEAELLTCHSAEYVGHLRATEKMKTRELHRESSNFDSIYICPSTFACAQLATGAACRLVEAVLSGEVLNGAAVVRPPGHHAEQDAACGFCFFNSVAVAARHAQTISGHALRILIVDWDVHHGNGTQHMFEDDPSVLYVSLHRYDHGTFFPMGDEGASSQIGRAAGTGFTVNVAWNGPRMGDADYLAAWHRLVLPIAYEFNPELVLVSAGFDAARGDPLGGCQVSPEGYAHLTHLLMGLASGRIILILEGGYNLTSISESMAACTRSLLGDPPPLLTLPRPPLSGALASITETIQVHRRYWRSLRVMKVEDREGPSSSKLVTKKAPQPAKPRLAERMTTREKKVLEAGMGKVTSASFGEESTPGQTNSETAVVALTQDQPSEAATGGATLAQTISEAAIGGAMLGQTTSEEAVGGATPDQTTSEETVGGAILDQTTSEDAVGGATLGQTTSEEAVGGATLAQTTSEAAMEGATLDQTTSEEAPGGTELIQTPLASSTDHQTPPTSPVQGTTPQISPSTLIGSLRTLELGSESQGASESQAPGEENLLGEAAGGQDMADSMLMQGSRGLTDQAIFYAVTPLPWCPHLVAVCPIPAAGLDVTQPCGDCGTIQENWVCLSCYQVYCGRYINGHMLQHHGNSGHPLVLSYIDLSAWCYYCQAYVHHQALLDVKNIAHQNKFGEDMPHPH

Histone deacetylase 4 = Histone deacetylase 4 (Homo sapiens, UniProt P56524); experiment: Inhibition of human HDAC4 using Boc-Lys (tri-fluoroacetyl)-AMC as substrate incubated for 1 hr followed by substrate addition and further incubated for 2 hrs by fluorescence assay
Histone deacetylase 4, sequence (P56524 whole entry): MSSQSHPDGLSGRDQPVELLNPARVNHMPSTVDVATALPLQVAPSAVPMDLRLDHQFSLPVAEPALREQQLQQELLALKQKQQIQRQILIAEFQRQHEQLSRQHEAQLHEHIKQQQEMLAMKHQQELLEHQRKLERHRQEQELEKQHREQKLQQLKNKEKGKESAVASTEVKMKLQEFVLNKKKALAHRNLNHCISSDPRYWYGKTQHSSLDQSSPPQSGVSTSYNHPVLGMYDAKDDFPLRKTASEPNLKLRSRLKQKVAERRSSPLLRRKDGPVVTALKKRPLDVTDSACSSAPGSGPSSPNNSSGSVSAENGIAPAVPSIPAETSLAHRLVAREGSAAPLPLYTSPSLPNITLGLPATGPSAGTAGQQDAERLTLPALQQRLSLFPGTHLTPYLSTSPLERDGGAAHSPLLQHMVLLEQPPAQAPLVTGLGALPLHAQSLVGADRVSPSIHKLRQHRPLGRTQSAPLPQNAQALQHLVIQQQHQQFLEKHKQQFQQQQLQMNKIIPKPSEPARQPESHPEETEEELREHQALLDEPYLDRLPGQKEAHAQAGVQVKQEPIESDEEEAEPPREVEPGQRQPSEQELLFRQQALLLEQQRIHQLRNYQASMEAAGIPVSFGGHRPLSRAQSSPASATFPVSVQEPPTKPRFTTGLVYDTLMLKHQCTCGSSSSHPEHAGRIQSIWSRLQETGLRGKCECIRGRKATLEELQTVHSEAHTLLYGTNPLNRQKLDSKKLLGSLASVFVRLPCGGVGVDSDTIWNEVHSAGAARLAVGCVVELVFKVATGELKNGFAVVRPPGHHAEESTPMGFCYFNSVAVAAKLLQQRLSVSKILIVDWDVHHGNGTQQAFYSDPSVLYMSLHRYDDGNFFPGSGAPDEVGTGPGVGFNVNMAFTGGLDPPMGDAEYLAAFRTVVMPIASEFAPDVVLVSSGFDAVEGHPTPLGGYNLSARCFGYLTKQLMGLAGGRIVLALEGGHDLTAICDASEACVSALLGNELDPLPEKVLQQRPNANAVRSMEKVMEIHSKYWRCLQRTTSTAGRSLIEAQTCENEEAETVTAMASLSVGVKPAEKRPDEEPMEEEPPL

IC50 [1]: > 10 µM
IC50 (Histone deacetylase 8): 4.65 µM
Stability [2]: Stable
Stability [3]: Stable
Stability [4]: Stable
Stability [5]: Stable
IC50 (Aminopeptidase N): 0.34 µM
IC50 [6]: > 10 µM
IC50 (Histone deacetylase 4): > 10 µM
Structure (SMILES): CCCNNC(=O)c1ccc(CNC(=O)[C@H](CC(C)C)NC(=O)[C@@H](O)[C@H](N)Cc2ccccc2)cc1.Cl
